One molecule from ChEMBL document CHEMBL1255439 (2010) can be followed below.

SMILES strings stand for the structures. Activity calls are given as the source filed them. The rule behind the calls is not given here. Where only a bound is given, the exact number is not on record here.

Experiment [1] relates to Burkholderia pseudomallei. The experiment is described as follows: Antibacterial activity against Burkholderia pseudomallei 1026b infected in BALB/c mouse assessed as protection against bacterial infection at 25 mg/kg, ip administered as single dose 6 hrs postinfection. Format: functional. Conditions: route intraperitoneal.
For experiment [2], the system named is Burkholderia pseudomallei. The experiment is described as follows: Antibacterial activity against Burkholderia pseudomallei 1026b infected in BALB/c mouse assessed as survival rate at 25 mg/kg, ip administered 6 hrs postinfection at 12 hrs interval for 3 days measured on day 20. Format: functional. The conditions noted are these: route intraperitoneal.
The subject of experiment [3] is Burkholderia pseudomallei. Briefly: Antibacterial activity against Burkholderia pseudomallei 1026b infected in BALB/c mouse assessed as increase survival rate at 25 mg/kg, ip administered 6 hrs postinfection at 12 hrs interval for 3 days measured on day 20. Format: functional, organism-based. On the set-up: dose 25 mg/kg.
In experiment [4] the test system is Burkholderia pseudomallei. Briefly: Antibacterial activity against Burkholderia pseudomallei 1026b infected in mouse AMJ.2 cells assessed as decrease in intracellular bacterial growth at 1 ug/ml after 24 hrs by serial dilution plating technique in presence of 100 U/ml murine recombinant IFN-gamma. Format: functional, organism-based.
The test system of experiment [5] is Burkholderia pseudomallei. The experiment is described as follows: Antibacterial activity against Burkholderia pseudomallei 1026b infected in BALB/c mouse assessed as increase in survival rate at 25 mg/kg, ip administered 6 hrs postinfection at 12 hrs interval for 3 days measured on day 60 in presence of murine recombinant IFN-gamma. On the set-up: dose 25 mg/kg. In kind it is functional, organism-based.

The subject of experiment [6] is Burkholderia pseudomallei. Briefly: Antibacterial activity against Burkholderia pseudomallei 1026b infected in mouse AMJ.2 cells assessed as inhibition of bacterial replication at <= 10 ug/ml after 24 hrs by serial dilution plating technique. Format: functional, organism-based.
Experiment [7] deals with Burkholderia pseudomallei. Briefly: Antibacterial activity against Burkholderia pseudomallei 1026b infected in BALB/c mouse assessed as decrease in bacterial count in spleen at 25 mg/kg, ip administered 6 hrs postinfection at 12 hrs interval for 3 days measured on day 65 in presence of murine recombinant IFN-gamma. In kind it is functional, organism-based. Further details: dose 25 mg/kg.

Experiment [8] has as its system Burkholderia pseudomallei. The experiment is described as follows: Antibacterial activity against Burkholderia pseudomallei 1026b infected in mouse AMJ.2 cells assessed as intracellular bacterial count at 10 ug/ml measured on 24 hrs postinfection by serial dilution plating technique (reference value: 2 X 10^4 CFU/ml). Format: functional.
For experiment [9], the system named is Burkholderia pseudomallei. Briefly: Antibacterial activity against Burkholderia pseudomallei 1026b infected in mouse AMJ.2 cells assessed as decrease in intracellular bacterial growth at 10 ug/ml after 24 hrs by serial dilution plating technique in presence of 1 U/ml murine recombinant IFN-gamma. Format: functional, organism-based.

In the case of `CC(C)(O/N=C(\C(=O)N[C@@H]1C(=O)N2C(C(=O)[O-])=C(C[n+]3ccccc3)CS[C@H]12)c1csc(N)n1)C(=O)O` [CEFTAZIDIME], the values for the Activity in [1] and in [2] were 20% and 10%, respectively. The result in experiment [3] was inactive. The inhibition entry in experiment [4], in experiment [7] and in [9] was “Active” throughout. The result in experiment [5] was Active. Moreover, the inhibition entry in [6] is “inactive”. Also, the CFU in [8] is recorded as more than 1 ×10⁶ /ml.
